Test results taken from patent US20260053750A1, “INHALABLE COMPOSITIONS OF CDK9 INHIBITORS” (THE REGENTS OF THE UNIVERSITY OF CALIFORNIA, priority 2022, published 2026).

Assays:
[1] = encapsulation and release in microparticles of the invention; assay type: physicochemical
[2] = system: TNF-stimulated luciferase reporter expression, driven by a NF-kB responsive promoter, in HEK293 cells; experiment: NF-kB luciferase reporter bioactivity assay; assay type: cell-based, Human; settings: 300 nM flavopiridol, 0.6 nM TNF-α, 24 h
Method: The bioactivity of flavopiridol released from ILDF particles was determined by a luciferase reporter assay as described previously. ILDF particles (18.94 mg) containing 0.190% (w/w) flavopiridol was dissolved in DMEM with 10% FBS to a stock solution of 8.9×10^4 nM flavopiridol. The bioactivity of flavopiridol was measured by its ability to suppress TNF-stimulated luciferase reporter expression, driven by a NF-kB responsive promoter. Human embryonic kidney 293 cells (HEK293) cells (ATCC) harboring a NF-kB-driven luciferase reporter were seeded in 96-well plates (10,000 cells/well in triplicates) 24 hours before the experiment. Cells were then treated with 100 μL of media containing 0.6 nM recombinant human TNF-α (Peprotech), in the presence or absence of various amount of dissolved flavopiridol formulation or blank formulation equivalent. After 24 h, 100 μL of 2× lysis buffer (Invitrogen) containing luciferase substrate was added directly to each well. Luminescence was measured in a plate reader (SpectraMax iD3, Molecular Devices). Experiments were performed in triplicate (N=3) from one batch of particles, and results were reported as mean±SD.

[3] = system: pulmonary fibrosis in mice using bleomycin; experiment: bleomycin pulmonary fibrosis in mice, inhaled flavopiridol; assay type: in vivo; settings: every two days from eight days post-bleomycin, 14-day treatment
Method: Our experimental model involved the induction of pulmonary fibrosis in mice using bleomycin, followed by the administration of inhaled flavopiridol during the early fibrotic phase of the model. Eight days post-intratracheal instillation of bleomycin, mice were treated with either a vehicle or inhaled flavopiridol every two days. After a 14-day treatment course, lung tissues were harvested and subjected to histological and biochemical analysis. A notable loss of body weight observed in bleomycin-exposed mice served as an indicator of successful fibrosis induction (FIG. 9).

[4] = system: lung fibrosis mouse model (bleomycin); experiment: bleomycin lung fibrosis mouse model, i.p. treatment; assay type: in vivo, C57B/L6 mice; settings: vs BLM+ vehicle control
Method: The effects of flavopiridol on lung inflammation and fibrosis were assessed in a lung fibrosis mouse model. C57B/L6 mice were treated with bleomycin (BLM) by microsprayer. At day 7 after BLM treatment, alveolar damage became apparent in the treated mice. At day 9, the mice were divided into 4 groups of 8 animals each. Each group received its corresponding treatment every other day starting at Day 9. At Day 30, the animals were sacrificed and assessed. One group received only phosphate buffer saline (PBS). One group received 28 mg/kg nitedanib by intraperitoneal injection (i.p.). One group received 2.5 mg/kg of flavopiridol i.p. and one group received 28 mg/kg idebenone i.p. Survival and lung morphology were assessed at day 30. […] Lung tissue sections from the treated animals were stained with Masson's trichome staining protocol and exemplary images are shown in FIG. 8D.

NFκB target genes = experiment: suppression of IL-1β-induced primary inflammatory response genes in human cell culture; assay type: cell-based
Method: CDK9 inhibitors exert effects on the inflammatory response pathway. For example, the pharmacological CDK9 inhibitor flavopiridol effectively suppresses the activation of a broad range of primary inflammatory response genes, in human cell culture treated with IL-1β for 5 hours (see FIG. 1). Among the 67 different genes (out of 84 total NFκB target genes tested) that were induced by IL-1β, 59 were repressed by flavopiridol co-treatment (including the most-characterized pro-inflammatory cytokines such as IL-1β, Il-6, and TNF). The average magnitude of repression is >86% of maximum induction. […] Importantly, house-keeping genes and non-inducible genes are not affected by CDK9 inhibition short term, indicating potential reduction in side effects.

[5] = cited from earlier work
[6] = 2.5 mg/kg i.p. every other day from Day 9, Day 30

| Compound | encapsulation and release in microparticles [1] | TNF-α-stimulated luciferase activity [2] | hydroxyproline levels [3] | survival rate ([3]; vs vehicle group) | hydroxyproline level [4, 6] | percentage of stained area (Masson's trichome, lung sections) [4, 6] | survival rate ([4]; 2.5 mg/kg i.p. every other day from Day 9, to Day 30) | body weight ([4]; 2.5 mg/kg i.p. every other day from Day 9) | average magnitude of repression (NFκB target genes; human cell culture treated with IL-1β for 5 hours, flavopiridol co-treatment) | number of IL-1β-induced genes repressed by flavopiridol co-treatment (NFκB target genes; of 67 genes induced by IL-1β (84 NFκB target genes tested), human cell culture, IL-1β for 5 hours) | in-vivo half-life [5] |
| --- | --- | --- | --- | --- | --- | --- | --- | --- | --- | --- | --- |
| CCc1cnn2c(NCc3ccc[n+]([O-])c3)cc(N3CCCC[C@H]3CCO)nc12 [Dinaciclib] | not encapsulated effectively or released appropriately | – | – | – | – | – | – | – | – | – | – |
| CN1CC[C@H](c2c(O)cc(O)c3c(=O)cc(-c4ccccc4Cl)oc23)[C@H](O)C1 [flavopiridol, 2-(2-chlorophenyl)-5,7-dihydroxy-8-[(3S,4R)-3-hydroxy-1-methyl-4-piperidinyl]-4-chromenone] | – | the luciferase activation was suppressed | appeared to suppress the bleomycin-induced increase of hydroxyproline levels | higher survival rate | statistically significant lower level of hydroxyproline | statistically significant decrease in percentage of stained area | statistically significant difference in survival rate | generally maintained a higher body weight | > 86 % of maximum induction | 59 | under 6 hours |
